Experimental findings from patent publication US9833494B2, “Methods of treating medical conditions using peptides” (KeyBioscience AG, priority 2009, dated 2017) are described below.

A short description of test [1]: relative weight change by rats injected daily. The format is in vivo, rat. Conditions: for relative weight change: same dose; for effectiveness in weight control: FIGS. 5 and 6. The text has this:
FIG. 5 is a graph illustrating relative weight change by rats injected daily with the same dose of either a placebo, UGP269 (SEQ ID NO: 12) or UGP 271 (SEQ ID NO: 13), at 7 and 14 days after commencement of the injection regimen. […] UGP 271 contained nearly the same sequence of amino acids as UGP269 except for the replacement of three amino acids at positions 26, 27 and 29.
FIG. 6 is a graph illustrating relative weight change by rats injected daily with the same dose of either a placebo, salmon calcitonin, UGP 271 (SEQ ID NO: 13) or UGP 281 (SEQ ID NO: 14) at 7 and 14 days after commencement of the injection regimen. FIG. 1 is a graph illustrating data from a bioassay comparing cAMP response for a peptide of the invention, SEQ ID NO:3, versus recombinant salmon calcitonin. […] UGP281 and UGP271 had identical amino acid sequences except that UGP281 was acylated at the N-terminus with acetate.

A short description of test [2]: placebo controlled crossover study with Beagle dogs, oral enteric-coated capsules (food intake, weight). The format is in vivo, Beagle dog. Conditions: for effect on food intake / change in weight during the dosing period: oral capsules; for effect on food intake: equivalent doses, week of dosing, FIG. 2; for change in weight during the dosing period: same dose, FIG. 3. An excerpt:
FIG. 2 is a graph illustrating the effect on food consumption provided by SEQ ID NO: 3 versus a placebo and two known appetite suppressants in a Beagle dog study. Average daily change in food consumption is shown following administration of oral capsules containing various doses of sCT, PYY or SEQ ID NO: 3 given to beagle dogs for four to seven days.
FIG. 3 is a graph illustrating the effect on weight provided by SEQ ID NO: 3 versus a placebo and two known appetite suppressants in a Beagle dog study. Average daily change in weight is shown following administration of oral capsules containing various doses of sCT, PYY, or SEQ ID NO: 3 given to beagle dogs for four to seven days.
The effect of peptide SEQ ID NO: 3 on food intake was investigated in a placebo controlled crossover study with Beagle dogs. Peptide SEQ ID NO: 3, as well as salmon calcitonin (sCT) and PYY(3-36)NH2 were formulated in enteric-coated capsules for oral delivery. The capsules also contained excipients that inhibit proteases and enhance the absorption of peptides. Placebo capsules contained the same excipients without the peptide. Food and water intake, as well as the weight of the dogs was monitored daily before, during, and after the dosing period. Dogs were allowed access to a known amount of food for an 8 hour period every day, and water was provided ad libitum. […] The food intake of dogs given a placebo remained unchanged.

In the next test the target is T1, calcitonin receptor (Homo sapiens, UniProt P30988).
T1 construct: endogenous in cells; host or cells: T47D cells
T1 sequence (P30988 25-474): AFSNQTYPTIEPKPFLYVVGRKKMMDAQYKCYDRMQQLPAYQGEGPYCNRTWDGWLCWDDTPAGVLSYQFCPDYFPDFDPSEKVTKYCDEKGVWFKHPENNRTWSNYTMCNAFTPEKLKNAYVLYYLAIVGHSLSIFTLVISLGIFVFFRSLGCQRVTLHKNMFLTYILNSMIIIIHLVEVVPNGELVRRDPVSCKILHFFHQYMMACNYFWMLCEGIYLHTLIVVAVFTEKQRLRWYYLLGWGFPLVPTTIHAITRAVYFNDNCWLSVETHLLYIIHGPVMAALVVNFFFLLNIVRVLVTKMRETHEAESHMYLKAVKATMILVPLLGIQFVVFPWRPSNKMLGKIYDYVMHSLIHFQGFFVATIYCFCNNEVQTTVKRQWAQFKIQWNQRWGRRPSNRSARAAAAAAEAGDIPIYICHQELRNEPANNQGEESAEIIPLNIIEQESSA
Put plainly: cAMP response bioassay with T47D cells. The test is classed as cell-based. Conditions: FIG. 1, versus recombinant salmon calcitonin. How it is done:
FIG. 1 is a graph illustrating data from a bioassay comparing cAMP response for a peptide of the invention, SEQ ID NO: 3, versus recombinant salmon calcitonin. Two replicate bioassay experiments were performed measuring the cAMP response with T47D cells. Each experiment compared three samples of SEQ ID NO: 3 to a sample of rsCT.

Test [3] has as its target T2, calcitonin receptors on T47D cells (Homo sapiens, UniProt P30988).
T2 construct: endogenous in cells; host or cells: T47D cells
T2 sequence (P30988 25-474): T1 sequence (P30988 25-474)
Put plainly: binding to calcitonin receptors on T47D cells. The text has this: FIG. 4 is a graph illustrating calcitonin-like properties of three peptides of the invention in comparison to salmon calcitonin in an assay that measures binding to calcitonin receptors on T47D cells. The three peptides of the invention are UGP269 (SEQ ID NO: 12), UGP 271 (SEQ ID NO: 13) and UGP281 (SEQ ID NO: 14).

Where [4] appears, read: rats injected intramuscularly daily, two weeks, FIG. 6.
Setting [5] is: rats injected daily, 7 and 14 days, FIG. 5, versus placebo.

Entries after “also recorded” stand apart in the source; their conditions may differ. Bridge positions count the residues as written; N and C are the ends. Ends that are not written are not given here.

For the molecule `CC(C)C[C@H](NC(=O)[C@H](CCCCN)NC(=O)CNC(=O)[C@H](CC(C)C)NC(=O)[C@@H](NC(=O)[C@@H]1CSSC[C@H](N)C(=O)N[C@@H](CO)C(=O)N[C@@H](CC(N)=O)C(=O)N[C@@H](CC(C)C)C(=O)N[C@@H](CO)C(=O)N[C@@H]([C@@H](C)O)C(=O)N1)C(C)C)C(=O)N[C@@H](CO)C(=O)N[C@@H](CCC(N)=O)C(=O)N[C@@H](CCC(=O)O)C(=O)N[C@@H](CC(C)C)C(=O)N[C@@H](Cc1c[nH]cn1)C(=O)N[C@@H](CCCCN)C(=O)N[C@@H](CC(C)C)C(=O)N[C@@H](CCC(N)=O)C(=O)N[C@H](C(=O)N[C@@H](Cc1ccc(O)cc1)C(=O)N1CCC[C@H]1C(=O)N[C@@H](CCCNC(=N)N)C(=O)N[C@H](C(=O)N[C@@H](CC(N)=O)C(=O)N[C@H](C(=O)NCC(=O)N[C@@H](CO)C(=O)NCC(=O)N[C@H](C(=O)N1CCC[C@H]1C(N)=O)[C@@H](C)O)[C@@H](C)O)[C@@H](C)O)[C@@H](C)O` [sCT, salmon calcitonin], the relative weight change entry in test [1] (setting [4]) is “significant weight loss”. For the same molecule, in test [2], the “effect on food intake” value is “significantly decreased food intake” and the “change in weight during the dosing period” value is listed as “small but significant reduction in weight”.

Regarding PYY(3-36)NH2, in test [2], the “effect on food intake” value is listed as “lesser effect” and the “change in weight during the dosing period” value turned out to be 0.05 % per day.

Regarding “SEQ ID NO: 3: salmon calcitonin sequence except asparagine at position 30 and tyrosine at position 32, amidated at tyrosine-32 (CSNLSTCVLGKLSQELHKLQTYPRTNTGSNTY-NH2; ends and bridges not checked)”, in the test with calcitonin receptor, the “cAMP response (indicator of calcitonin receptor activation) compared with salmon calcitonin” value is “less potent when binding to the calcitonin receptor than is natural salmon calcitonin”. In addition, the “potency in reducing food consumption relative to sCT” value in test [2] (FIGS. 1-3) was “comparable to that of the bone anti-resorptive peptide sCT”. In test [2], the “effect on food intake” value is given as “significantly decreased food intake” and the “change in weight during the dosing period” value is “small but significant reduction in weight”.

With “UGP269: peptide of the invention, calcitonin analog (CSNLSTCVLGKLSQELHKLQTYPRTNTGSNTY-NH2; disulfide 1-7; N-terminus assumed; SMILES CC(C)C[C@H](NC(=O)[C@H](CCCCN)NC(=O)CNC(=O)[C@H](CC(C)C)NC(=O)[C@@H](NC(=O)[C@@H]1CSSC[C@H](N)C(=O)N[C@@H](CO)C(=O)N[C@@H](CC(N)=O)C(=O)N[C@@H](CC(C)C)C(=O)N[C@@H](CO)C(=O)N[C@@H]([C@@H](C)O)C(=O)N1)C(C)C)C(=O)N[C@@H](CO)C(=O)N[C@@H](CCC(N)=O)C(=O)N[C@@H](CCC(=O)O)C(=O)N[C@@H](CC(C)C)C(=O)N[C@@H](Cc1c[nH]cn1)C(=O)N[C@@H](CCCCN)C(=O)N[C@@H](CC(C)C)C(=O)N[C@@H](CCC(N)=O)C(=O)N[C@H](C(=O)N[C@@H](Cc1ccc(O)cc1)C(=O)N1CCC[C@H]1C(=O)N[C@@H](CCCNC(=N)N)C(=O)N[C@H](C(=O)N[C@@H](CC(N)=O)C(=O)N[C@H](C(=O)NCC(=O)N[C@@H](CO)C(=O)N[C@@H](CC(N)=O)C(=O)N[C@H](C(=O)N[C@@H](Cc1ccc(O)cc1)C(N)=O)[C@@H](C)O)[C@@H](C)O)[C@@H](C)O)[C@@H](C)O)”, the relative weight change entry in test [1] (setting [5]) is on record as “less weight gain over two weeks than those injected with placebo”. Moreover, in test [1] (rats), the “effectiveness in weight control” value is reported as “good effectiveness in weight control”. Besides, the “binding to calcitonin receptors compared with sCT” value in test [3] (FIG. 4) was “less binding to sCT receptors than sCT; also recorded: less binding affinity for the calcitonin receptor than does salmon calcitonin”.

On to “UGP271: nearly the same sequence as UGP269 except for the replacement of three amino acids at positions 26, 27 and 29 (CSNLSTCVLGKLSQELHKLQTYPRTDVGANTY-NH2; disulfide 1-7; N-terminus assumed; SMILES CC(C)C[C@H](NC(=O)[C@H](CCCCN)NC(=O)CNC(=O)[C@H](CC(C)C)NC(=O)[C@@H](NC(=O)[C@@H]1CSSC[C@H](N)C(=O)N[C@@H](CO)C(=O)N[C@@H](CC(N)=O)C(=O)N[C@@H](CC(C)C)C(=O)N[C@@H](CO)C(=O)N[C@@H]([C@@H](C)O)C(=O)N1)C(C)C)C(=O)N[C@@H](CO)C(=O)N[C@@H](CCC(N)=O)C(=O)N[C@@H](CCC(=O)O)C(=O)N[C@@H](CC(C)C)C(=O)N[C@@H](Cc1c[nH]cn1)C(=O)N[C@@H](CCCCN)C(=O)N[C@@H](CC(C)C)C(=O)N[C@@H](CCC(N)=O)C(=O)N[C@H](C(=O)N[C@@H](Cc1ccc(O)cc1)C(=O)N1CCC[C@H]1C(=O)N[C@@H](CCCNC(=N)N)C(=O)N[C@H](C(=O)N[C@@H](CC(=O)O)C(=O)N[C@H](C(=O)NCC(=O)N[C@@H](C)C(=O)N[C@@H](CC(N)=O)C(=O)N[C@H](C(=O)N[C@@H](Cc1ccc(O)cc1)C(N)=O)[C@@H](C)O)C(C)C)[C@@H](C)O)[C@@H](C)O)”, for which the relative weight change entry is “no weight gain” in test [1] (setting [5]) and “modest weight loss” in test [1] (setting [4]). Also, the “effectiveness in weight control” value in test [1] (rats) is on record as “good effectiveness in weight control”. The “binding to calcitonin receptors compared with sCT” value in test [3] (FIG. 4) was “less binding to sCT receptors than sCT”; in test [3] (FIG. 4, listed as UGP 271) it was “less binding affinity for the calcitonin receptor than does salmon calcitonin”.

For the molecule “UGP281: amino acid sequence identical to UGP271 except acylated at the N-terminus with acetate (Ac-CSNLSTCVLGKLSQELHKLQTYPRTDVGANTY-NH2; disulfide 1-7; SMILES CC(=O)N[C@H]1CSSC[C@@H](C(=O)N[C@H](C(=O)N[C@@H](CC(C)C)C(=O)NCC(=O)N[C@@H](CCCCN)C(=O)N[C@@H](CC(C)C)C(=O)N[C@@H](CO)C(=O)N[C@@H](CCC(N)=O)C(=O)N[C@@H](CCC(=O)O)C(=O)N[C@@H](CC(C)C)C(=O)N[C@@H](Cc2c[nH]cn2)C(=O)N[C@@H](CCCCN)C(=O)N[C@@H](CC(C)C)C(=O)N[C@@H](CCC(N)=O)C(=O)N[C@H](C(=O)N[C@@H](Cc2ccc(O)cc2)C(=O)N2CCC[C@H]2C(=O)N[C@@H](CCCNC(=N)N)C(=O)N[C@H](C(=O)N[C@@H](CC(=O)O)C(=O)N[C@H](C(=O)NCC(=O)N[C@@H](C)C(=O)N[C@@H](CC(N)=O)C(=O)N[C@H](C(=O)N[C@@H](Cc2ccc(O)cc2)C(N)=O)[C@@H](C)O)C(C)C)[C@@H](C)O)[C@@H](C)O)C(C)C)NC(=O)[C@H]([C@@H](C)O)NC(=O)[C@H](CO)NC(=O)[C@H](CC(C)C)NC(=O)[C@H](CC(N)=O)NC(=O)[C@H](CO)NC1=O)”, the relative weight change entry in test [1] (setting [4]) is reported as “significant weight loss”. The “enhancement of efficacy by the acetyl group on cysteine-1” value in test [1] (rats, FIG. 6, UGP281 versus UGP271) is reported as “substantial enhancement of efficacy”. In test [1] (rats), the “effectiveness in weight control” value is given as “good effectiveness in weight control”. Moreover, the “binding to calcitonin receptors compared with sCT” value in test [3] (FIG. 4) was “less binding to sCT receptors than sCT; also recorded: less binding affinity for the calcitonin receptor than does salmon calcitonin”.
